Measurements published in patent US6930103B2, “Use of vasopeptidase inhibitors in the treatment of metabolic diseases, nephropathy and advanced glycation end-product associated diseases” (Aventis Pharma Deutschland GmbH, priority 2002, dated 2005).

Key:
[1] = tested on: Zucker diabetic fatty rats; assay: HbA1c analysis in ZDF rats; assay type: in vivo, rat; conditions: for HbA1c values compared to the untreated ZDF rats: 17-week-old ZDF rats; for HbA1c, mean: ZDF rats
Experimental: (§1) Blood glucose and HbA1c was measured in 10- and 17-week-old male Zucker diabetic fatty rats (Genetic Model Inc.), control rats (Genetic Model Inc.) and male ZDF rats treated for seven weeks with 30 mg/kg/d of compound (II-B), 35 mg/kg/d of compound (III-B) and 1 mg/kg/d ramipril. Fifteen animals were analyzed in each group.
To obtain blood samples for HbA1c determination, disposable capillary tubes were used. HbA1c values were obtained from hemolyzed whole blood samples with a turbidimetric inhibition immunoassay (Tina-quant, Roche Diagnostics GmbH) and hemoglobin concentrations were determined in a second channel on an automated clinical chemistry analyzer (Boehringer Mannheim/Hitachi 912). HbA1c concentration in percent were calculated from HbA1c to total hemoglobin.

[2] = tested on: Zucker diabetic fatty rats; assay: Blood glucose analysis in ZDF rats; assay type: in vivo, rat; conditions: for Blood glucose concentration compared to the untreated ZDF rats: 17-week-old ZDF rats; for blood glucose, mean: ZDF rats
Experimental: as §1
Blood samples for glucose determination were obtained from ZDF rats using standard sampling tubes. Within 30 minutes of collection, samples were separated from the cells by centrifugation. Quantitative determination of blood glucose in serum was performed with an enzymatic in vitro test from Roche Diagnostics GmbH (Gluco-quant, Roche Diagnostics GmbH) using the automated clinical chemistry analyzer Boehringer Mannheim/Hitachi 912.

endothelial cells = assay: NO and superoxide release from endothelial cells in rabbits fed an atherogenic diet; assay type: in vivo, White New Zealand rabbits; conditions: varied diet rabbits; mean ± SEM
Excerpt: (§2) It was shown in the atherogenic rabbit model (White New Zealand rabbits were fed with 0.25% cholesterol plus 3% coconut oil) that even a short 6 week period of an atherogenic diet leads to sustained endothelial dysfunction, even though the animals received a normal diet for 3 months thereafter.
The endothelium-dependent relaxation of isolated aortic rings of rabbits as well as the release of nitric oxide and superoxide from endothelial cells serve as measures of endothelial dysfunction.
• Groups: • Standard: 18 weeks normal diet • Atherogenic: 18 weeks atherogenic diet (3% Coconut oil+0.25% Cholesterol) • Varied diet (Var.): 6 weeks atherogenic diet+12 weeks normal diet • Varied Diet+ramipril: 6 weeks atherogenic diet+12 weeks normal diet+ramipril • Varied diet+compound (II-B): 6 weeks atherogenic diet+12 weeks normal diet+cpd. (II-B)
NO and O2^− are markers for endothelial function: increased relaxation and increased NO levels are beneficial, while increased O2^− formation inhibits the beneficial effects of NO.

ZDF rats [3] = assay: Urinary albumin/creatinine in ZDF rats, treatment starting at an animal age of 6 months; assay type: in vivo, rat; conditions: start at age 6 months, mean
[4] = tested on: isolated aortic rings of rabbits; assay: Relaxation of aortic rings by acetylcholine in rabbits fed an atherogenic diet; assay type: in vivo, White New Zealand rabbits; conditions: varied diet rabbits, mean ± SEM
Excerpt: as §2, with “thereafter. […] The endothelium-dependent relaxation of isolated aortic rings of rabbits as well as the release of nitric oxide and superoxide from endothelial cells serve as measures of endothelial dysfunction. […] (II-B) [table]” for “thereafter.”

Wistar rats = assay: Albumin and creatinine excretion in Wistar rats (non-diabetic nephropathy); assay type: in vivo, rat; conditions: Wistar rats, start at age 6 months, mean
Experimental: The albumin and creatinine excretion in Wistar rats was determined. One group was left untreated, one was treated with the ACE/NEP inhibitor of formula (II-B) and one group was treated with the ACE inhibitor ramipril. Wistar rats are non-diabetic and develop proteinuria and structural kidney damage during adult life. Wistar rats are therefore a model for non-diabetic nephropathy. [table]

fat ZDF rats = assay: Histological examination of kidneys of ZDF rats after 6 months treatment; assay type: in vivo, rat; parameters: Armanni-Ebstein cells MEAN SEVERITY / Glomerulosclerosis MEAN SEVERITY / Atrophy: renal tubule MEAN SEVERITY / Casts: renal tubule MEAN SEVERITY: scale not given here; conditions: for Incidence of glomerulosclerosis or associated degenerative lesions compared to fat ZDF controls: in words
Experimental: (§3) The protein and creatinine excretion in the urine of male Zucker Diabetic Fatty (ZDF) Rats (ZDF Gmi fa/fa) and heterozygous control animals (ZDF Gmi −/+) of 10, 17, 27 and 37 weeks age was determined. In further groups, diabetic rats were chronically given either ramipril (1 mg/kg/day, in drinking water) or a compound of formula (II-B) (30 mg/kg/day, in food) over a period from 10 to 37 weeks. The animals were sacrificied after 37 weeks, and their kidneys examined histologically.
In the attached tables a summary of the findings on the kidneys after a treatment period of 6 months is listed.

Goto-Kakizaki (GK) rats = assay: Albumin and creatinine excretion in Goto-Kakizaki (GK) rats; assay type: in vivo, rat; conditions: start at age 6 months, mean
Experimental: The albumin and creatinine excretion in Goto-Kakizaki (GK) rats was determined. GK rats are a model for Type II diabetes. One group was left untreated, one was treated with the ACE/NEP inhibitor of formula (II-B) and one group was treated with the ACE inhibitor ramipril. [table]

[5] = tested on: Zucker Diabetic Fatty (ZDF) Rats (ZDF Gmi fa/fa); assay: Urinary excretion of albumin and creatinine in ZDF rats treated from 10 to 37 weeks of age; assay type: in vivo, rat; conditions: ZDF rats, mean
Experimental: as §3

ZDF rats [6] = assay: RP-HPLC analysis of CML in kidney and heart of ZDF rats; assay type: in vivo, rat; conditions: for mean CML conc.: RP-HPLC, ZDF Placebo = 100
Experimental: (§4) Kidney AGE values were determined by Dot blot analysis (Stracke et al., Exp. Clin. Endocrinol. Diabets 2002, 109, 330-336) and Reversed-phase high performance liquid chromatography or RP-HPLC (Drusch et al., Food Chem. 1999, 65, 547-553).
[…] Two animals of each group were analyzed. Grinding of the kidney and heart was performed in liquid nitrogen using a freezer mill (Freezer 6750, C3 Analysetechnik GmbH). Hydrolysis of the organ samples was performed with 6 M hydrochloric acid (HCl) at 110° C. for 12 hours. Sample treatment with o-phthaldialdehyde (OPA) and RP-HPLC was performed as described in Drusch et al., Food Chem. 1999, 65, 547-553.

ZDF rats [7] = assay: Dot blot analysis of kidney AGE subtypes (CML, CEL, pentosidine) in ZDF rats; assay type: in vivo, rat
Experimental: as §4
Kidney-samples for the dot blot analysis were obtained from 17-week-old male ZDF rats, control rats and ZDF rats treated for seven weeks with 30 mg/kg/d of compound (II-B) and 35 mg/kg/d of compound (III-B). Three animals of each group were sacrificed, the kidneys removed and immediately frozen in liquid nitrogen. Grinding of the kidneys was performed in liquid nitrogen using a freezer mill (Freezer 6750, C3 Analysetechnik GmbH). Kidney sample (10 mg) was dissolved in 1 ml phosphate buffered saline (PBS containing 0.5 g/l Tween 20, 0.5 mM PMSF, […]). The solution was treated two times for five seconds with an ultrasonic cell disrupter (45% power, Bandolin Sonoplus HD 2070), centrifuged for 20 minutes at 4000 rpm and the supernatant was used for dot blot analysis. The nitrocellulose membrane was placed in the dot blot apparatus and washed twice with Tris Buffered Saline (TBS), 100 μl TBS/well. For each sample, 10 μg protein (protein concentration of the samples were determined with the DC Protein Assay, Bio Rad) was diluted in 100 μl TBS and loaded on to the nitrocellulose membrane (Amersham). The membrane was incubated over night in TBS with Tween 20 (TBST; 20 mM Tris, 137 mM NaCl, 0.05% v/v Tween 20) with 5% non-fat dry milk at 4° C. and incubated for 1 hour at room temperature using the following antibody concentration: anti-CML 011 (Biologo) 0.25 μg/ml, anti-CEL (Biologo) 0.25 μg/ml and anti-pentosidine 012 (Biologo) 0.25 μg/ml. After extensive washing in TBST with 5% non-fat dry milk, membranes were exposed to […] anti-mouse IgG antibodies (Dianova) for one hour at room temperature. Membranes were washed again and exposed to the enhanced chemofluorescence detection system (Amersham) according to manufacturer's instructions. Relative fluorescence was determined with the Fluor-Imager 595 (Molecular Dynamics) and quantified using the Image-Quant software. Results were expressed in relative fluorescence (rf) times 10^5 (rf*10^5).

[8] = age 10 weeks (start of treatment)
[9] = age 17 weeks (treated for seven weeks)
[10] = kidneys, male fat ZDF rats, terminal sacrifice
[11] = kidneys, male fat ZDF rats, terminal sacrifice, examined: D1 9, D4 8
[12] = 17-week-old ZDF rats treated for seven weeks, dot blot

CCOC(=O)[C@H](CCc1ccccc1)N[C@@H](C)C(=O)N1[C@H](C(=O)O)C[C@@H]2CCC[C@@H]21 [ramipril, reference compound]
HbA1c values compared to the untreated ZDF rats ([1]; in words): No significant difference | HbA1c, mean [1, 8]: 5.66% | HbA1c, mean [1, 9]: 9.48% | Blood glucose concentration compared to the untreated ZDF rats ([2]; in words): No significant difference | blood glucose, mean [2, 8]: 11.74 mM | blood glucose, mean [2, 9]: 27.33 mM | NO (endothelial cells): 368.31 ± 42.25 nM | O2^− (superoxide) (endothelial cells): 48.09 ± 7.91 nM | Albumin/Creatinine (ZDF rats [3]; 6 weeks treatment): 1249.59 mg/mmol | Albumin/Creatinine (ZDF rats [3]; 12 weeks treatment): 841.69 mg/mmol | Albumin/Creatinine (ZDF rats [3]; Basal): 1330.99 mg/mmol | Relaxation of aortic rings by acetylcholine ([4]; ACh 10^−5 mol/L after phenylephrine 10^−7 mol/L): 83.73 ± 4.03% | Relaxation of aortic rings by acetylcholine ([4]; ACh 10^−6 mol/L after phenylephrine 10^−7 mol/L): 77.34 ± 3.7% | Relaxation of aortic rings by acetylcholine ([4]; ACh 10^−7 mol/L after phenylephrine 10^−7 mol/L): 51.86 ± 4.43% | Relaxation of aortic rings by acetylcholine ([4]; ACh 10^−8 mol/L after phenylephrine 10^−7 mol/L): 13.08 ± 2.22% | Albumin/Creatinine (Wistar rats; 6 weeks treatment): 184.27 mg/mmol | Albumin/Creatinine (Wistar rats; 12 weeks treatment): 188.40 mg/mmol | Albumin/Creatinine (Wistar rats; Basal): 130.45 mg/mmol | Incidence of glomerulosclerosis or associated degenerative lesions compared to fat ZDF controls (fat ZDF rats): no differences | Armanni-Ebstein cells GRADE 1: number of animals (fat ZDF rats; [10]): 1 | Armanni-Ebstein cells GRADE 2: number of animals (fat ZDF rats; [10]): 6 | Armanni-Ebstein cells MEAN SEVERITY (fat ZDF rats; [10]): 1.9 | Atrophy: renal tubule GRADE 1: number of animals (fat ZDF rats; [10]): 4 | Atrophy: renal tubule GRADE 2: number of animals (fat ZDF rats; [10]): 4 | Atrophy: renal tubule GRADE 3: number of animals (fat ZDF rats; [10]): 1 | Atrophy: renal tubule MEAN SEVERITY (fat ZDF rats; [10]): 1.7 | Casts: renal tubule GRADE 1: number of animals (fat ZDF rats; [10]): 1 | Casts: renal tubule GRADE 2: number of animals (fat ZDF rats; [10]): 7 | Casts: renal tubule MEAN SEVERITY (fat ZDF rats; [10]): 1.9 | Dilatation: pelvis GRADE 2: number of animals (fat ZDF rats; [10]): 1 | Dilatation: pelvis GRADE 3: number of animals (fat ZDF rats; [10]): 2 | Dilatation: pelvis GRADE 4: number of animals (fat ZDF rats; [10]): 2 | Dilatation: pelvis MEAN SEVERITY (fat ZDF rats; [10]): 3.2 | Glomerulosclerosis GRADE 2: number of animals (fat ZDF rats; [10]): 4 | Glomerulosclerosis GRADE 3: number of animals (fat ZDF rats; [10]): 2 | Glomerulosclerosis MEAN SEVERITY (fat ZDF rats; [10]): 2.3 | Armanni-Ebstein cells: number of animals with finding (total affected) (fat ZDF rats; [11]): 7 | Atrophy: renal tubule: number of animals with finding (total affected) (fat ZDF rats; [11]): 9 | Casts: renal tubule: number of animals with finding (total affected) (fat ZDF rats; [11]): 8 | Dilatation: pelvis: number of animals with finding (total affected) (fat ZDF rats; [11]): 5 | Glomerulosclerosis: number of animals with finding (total affected) (fat ZDF rats; [11]): 6 | Albumin/Creatinine (Goto-Kakizaki (GK) rats; 6 weeks treatment): 161.71 mg/mmol | Albumin/Creatinine (Goto-Kakizaki (GK) rats; 12 weeks treatment): 244.89 mg/mmol | Albumin/Creatinine (Goto-Kakizaki (GK) rats; Basal): 103.95 mg/mmol | Urine excretion Albumin ([5]; week 0 of treatment): 0.24 mg/kg/h | Urine excretion Albumin/Creatinine ([5]; week 0 of treatment): 37.31 mg/mmol | Urine excretion Albumin ([5]; week 7 of treatment): 1.36 mg/kg/h | Urine excretion Albumin/Creatinine ([5]; week 7 of treatment): 207.35 mg/mmol | Urine excretion Albumin ([5]; week 17 of treatment): 6.26 mg/kg/h | Urine excretion Albumin/Creatinine ([5]; week 17 of treatment): 694.20 mg/mmol | Urine excretion Albumin ([5]; week 27 of treatment): 10.11 mg/kg/h | Urine excretion Albumin/Creatinine ([5]; week 27 of treatment): 1077.88 mg/mmol

CC(=O)S[C@@H](Cc1ccccc1)C(=O)N[C@H]1Cc2ccccc2[C@H]2CCC[C@@H](C(=O)O)N2C1=O [cpd. (III-B)]
mean CML conc. (ZDF rats [6]; hearts of 17-week-old ZDF rats): 66% | mean CML conc. (ZDF rats [6]; kidneys of 17-week-old ZDF rats): 60% | mean CML conc. (ZDF rats [6]; kidneys of 37-week-old ZDF rats): 93% | CML concentration in the heart of 17-week-old ZDF rats (ZDF rats [6]; in words): also reduces | CML concentration in the kidneys of 17-week-old ZDF rats (ZDF rats [6]; in words): also reduces | HbA1c values compared to the untreated ZDF rats ([1]; in words): significantly lower | HbA1c, mean [1, 8]: 5.60% | HbA1c, mean [1, 9]: 7.19% | HbA1c value compared with the ACE inhibitor ramipril ([1]; in words): lower values | Blood glucose concentration compared to the untreated ZDF rats ([2]; in words): significantly lower | blood glucose, mean [2, 8]: 10.37 mM | blood glucose, mean [2, 9]: 19.74 mM | Blood glucose value compared with the ACE inhibitor ramipril ([2]; in words): lower values | AGE-subtype CEL in the kidneys (anti-CEL), mean (ZDF rats [7]; [12]): 52.60 rf * 10^5 | AGE-subtype CML in the kidneys (anti-CML 011), mean (ZDF rats [7]; [12]): 38.67 rf * 10^5 | AGE-subtype pentosidine in the kidneys (anti-pentosidine 012), mean (ZDF rats [7]; [12]): 40.70 rf * 10^5 | Kidney AGE (Nε-(carboxymethyl)lysine or CML) values (ZDF rats [7]; diabetic rats, summary in words): lowers the CML value significantly | AGE values for subtype CEL compared to untreated ZDF rats (ZDF rats [7]; kidney, dot blot, in words): Lower AGE values | AGE values for subtype pentosidine compared to untreated ZDF rats (ZDF rats [7]; kidney, dot blot, in words): Lower AGE values | Incidence of glomerulosclerosis or associated degenerative lesions compared to fat ZDF controls (fat ZDF rats): no differences
